32 molecules from patent US7244738B2, “Arylamine-substituted quinazolinone compounds useful as alpha 1A/B adrenergic receptor antagonists” (Roche Palo Alto LLC, priority 2003, dated 2007) can be followed below.

The melting point is the temperature, or range, at which the solid turns liquid.

Counter-ions that a name gives are not always drawn.

`CNC(=O)c1cccc(CN(C)c2nc(=O)c3c(OC)c(OC)c(OC)cc3[nH]2)c1` [Example 137, N-Methyl-3-{[methyl-(5,6,7-trimethoxy-4-oxo-1,4-dihydro-quinazolin-2-yl)-amino]-methyl}-benzamide]: the melting point is 217.9 to 219.1 °C.

`COc1cc2[nH]c(N(C)Cc3cccc(N=C(C(C)C)N(C)C)c3)nc(=O)c2c(OC)c1OC` [Example G-32, N,N-Dimethyl-N′-(3-{[methyl-(5,6,7-trimethoxy-4-oxo-1,4-dihydro-quinazolin-2-yl)-amino]-methyl}-phenyl)-isobutyramidine] had a melting point of 148 to 150 °C. With `COc1cc2[nH]c(N(C)Cc3ccc(CN(C)CCC(F)(F)F)cc3)nc(=O)c2c(OC)c1OC` [Example 1, 5,6,7-Trimethoxy-2-[methyl-(4-{[methyl-(3,3,3-trifluoro-propyl)-amino]-methyl}-benzyl)-amino]-1H-quinazolin-4-one] the figure was 97.8 to 101.9 °C. Take `CCNCCOc1cccc(CN(C)c2nc(=O)c3c(C)c(OC)c(OC)cc3[nH]2)c1` [Example 165, 2-{[3-(2-Ethylamino-ethoxy)-benzyl]-methyl-amino}-6,7-dimethoxy-5-methyl-1H-quinazolin-4-one]: the melting point is 264.6 to 266.5 °C.

The molecule `CCCN(C)Cc1cccc(CN(C)c2nc(=O)c3c(C)c(OC)c(OC)cc3[nH]2)c1` [Example 68, 6,7-Dimethoxy-5-methyl-2-(methyl-{3-[(methyl-propyl-amino)-methyl]-benzyl}-amino)-1H-quinazolin-4-one] yielded a melting point of 128.1 to 129.1 °C. With `COc1cc2[nH]c(N(C)Cc3cccc(CN4CCCC4)c3)nc(=O)c2c(C)c1OC` [Example 122, 6,7-Dimethoxy-5-methyl-2-[methyl-(3-pyrrolidin-1-ylmethyl-benzyl)-amino]-1H-quinazolin-4-one] the figure was 163.9 to 164.5 °C; with `COc1cc2[nH]c(N(C)Cc3cccc(N4CCN=C4C)c3)nc(=O)c2c(C)c1OC` [Example H-6, 6,7-Dimethoxy-5-methyl-2-{methyl-[3-(2-methyl-4,5-dihydro-imidazol-1-yl)-benzyl]-amino}-1H-quinazolin-4-one], 177 to 180 °C. The result for `COc1cc2[nH]c(N(C)Cc3cccc(N4C=NC(C)(C)C4)c3)nc(=O)c2cc1OC` [Example A-12, 2-{[3-(4,4-Dimethyl-4,5-dihydro-imidazol-1-yl)-benzyl]-methyl-amino}-6,7-dimethoxy-1H-quinazolin-4-one] reads 240 to 244 °C.

On to `COc1cc2[nH]c(N(C)Cc3cccc(Nc4cc(C)nc(Cl)n4)c3)nc(=O)c2c(OC)c1OC` [Example 218, 2-{[3-(2-Chloro-6-methyl-pyrimidin-4-ylamino)-benzyl]-methyl-amino}-5,6,7-trimethoxy-1H-quinazolin-4-one], for which the melting point was 185.5 to 187.1 °C. For `COCCOC(=O)N(C)Cc1cccc(CN(C)c2nc(=O)c3c(C)c(OC)c(OC)cc3[nH]2)c1` [Example 294, (3-{[(6,7-Dimethoxy-5-methyl-4-oxo-1,4-dihydro-quinazolin-2-yl)-methyl-amino]-methyl}-benzyl)-methyl-carbamic acid 2-methoxy-ethyl ester], the melting point is 145.8 to 146.9 °C. In turn, `COc1cc2[nH]c(N(C)Cc3cccc(C4=NCCN4CCO)c3)nc(=O)c2c(C)c1OC` [Example 244, 2-({3-[1-(2-Hydroxy-ethyl)-4,5-dihydro-1H-imidazol-2-yl]-benzyl}-methyl-amino)-6,7-dimethoxy-5-methyl-1H-quinazolin-4-one] registered a melting point of 253 to 254.9 °C. `COc1cc2[nH]c(N(C)Cc3cccc(N4CCN(C)C4=O)c3)nc(=O)c2c(OC)c1OC` [Example 263, 5,6,7-Trimethoxy-2-{methyl-[3-(3-methyl-2-oxo-imidazolidin-1-yl)-benzyl]-amino}-1H-quinaozlin-4-one] came in with a melting point of 205.4 to 207.8 °C. With `COc1cc2[nH]c(N(C)Cc3cccc(C(C)N(C)S(C)(=O)=O)c3)nc(=O)c2c(C)c1OC` (centres unmarked) [Example 26, N-[1-(3-{[(6,7-Dimethoxy-5-methyl-4-oxo-1,4-dihydro-quinazolin-2-yl)-methyl-amino]-methyl}-phenyl)-ethyl]-N-methyl-methanesulfonamide] the figure was 130 to 133.8 °C. Turning to `COc1cc2[nH]c(N(C)Cc3cccc(Nc4nc(Cl)ncc4C)c3)nc(=O)c2c(OC)c1OC` [Example 217, 2-{[3-(2-Chloro-5-methyl-pyrimidin-4-ylamino)-benzyl]-methyl-amino}-5,6,7-trimethoxy-1H-quinazolin-4-one], the melting point was in the range of 225.9 to 227 °C. The result for `COc1cc2[nH]c(N(C)CCc3cccc(/N=C(\C)N(C)C)c3)nc(=O)c2cc1OC` [Example 91, N′-(3-{2-[(6,7-Dimethoxy-4-oxo-1,4-dihydro-quinazolin-2-yl)-methyl-amino]-ethyl}-phenyl)-N,N-dimethyl-acetamidine] reads 135 to 138.1 °C; that for `COc1cc2[nH]c(N(C)Cc3cccc(-n4ccc(C)n4)c3)nc(=O)c2c(C)c1OC` [Example 233, 6,7-Dimethoxy-5-methyl-2-{methyl-[3-(3-methyl-pyrazol-1-yl)-benzyl]-amino}-1H-quinazolin-4-one], 220 to 223.5 °C; that for `COc1cc2[nH]c(N(C)Cc3cccc(C(=O)O)c3)nc(=O)c2c(C)c1OC` [Example 134, 3-{[(6,7-Dimethoxy-5-methyl-4-oxo-1,4-dihydro-quinazolin-2-yl)-methyl-amino]-methyl}-benzoic acid], 283.1 to 286.2 °C.

Molecule `COc1cc2[nH]c(N(C)Cc3cccc(C4=NCCN4CCO)c3)nc(=O)c2c(OC)c1OC` (as salt: TFA) [Example 245, 2-({3-[1-(2-Hydroxy-ethy)-4,5-dihydro-1H-imidazol-2-yl]-benzyl}-methyl-amino)-5,6,7-trimethoxy-1H-quinazolin-4-one] showed a melting point of 106.1 to 116.6 °C. Molecule `CCN(C)Cc1cccc(CN(C)c2nc(=O)c3c(C)c(OC)c(OC)cc3[nH]2)c1` [Example 71, 2-({3-[(Ethyl-methyl-amino)-methyl]-benzyl}-methyl-amino)-6,7-dimethoxy-5-methyl-1H-quinazolin-4-one] returned a melting point of 146.7 to 150.8 °C. With `COc1cc2[nH]c(N(C)Cc3cccc(NS(=O)(=O)N(C)C)c3)nc(=O)c2c(C)c1OC` [Example 169, N′-(3-{[(6,7-dimethoxy-5-methyl-4-oxo-1,4-dihydro-quinazolin-2-yl)-methyl-amino]-methyl}-phenyl)-N,N-dimethylsulfamide] the figure was 195.3 to 199 °C. With `COc1cc2[nH]c(N(C)Cc3cccc(N4CCCC4)c3)nc(=O)c2cc1OC.Cl` the figure was 220 to 223 °C; with `CNCc1cccc(CN(C)c2nc(=O)c3c(OC)c(OC)c(OC)cc3[nH]2)c1` [Example 111, 5,6,7-Trimethoxy-2-[methyl-(3-methylaminomethyl-benzyl)-amino]-1H-quinazolin-4-one], 124.9 to 127.6 °C.

As for `COc1cc2[nH]c(N(Cc3ccccc3)C(C)C)nc(=O)c2cc1OC` [Example A-7, 2-(Benzyl-isopropyl-amino)-6,7-dimethoxy-1H-quinazolin-4-one], the melting point fell in the range of 168 to 170.5 °C. The result for `CONC(=O)Nc1cccc(CN(C)c2nc(=O)c3c(OC)c(OC)c(OC)cc3[nH]2)c1` [Example 181, N-Methoxy-N′-(3-{[methyl-(5,6,7-trimethoxy-4-oxo-1,4-dihydro-quinazolin-2-yl)-amino]-methyl-}-phenyl)-urea] reads 165 to 167 °C; that for `COc1cc2[nH]c(N(C)Cc3cccc(O)c3)nc(=O)c2c(OC)c1OC` [Example 155, 2-[(3-Hydroxy-benzyl)-methyl-amino]-5,6,7-trimethoxy-1H-quinazolin-4-one], 212.3 to 215.1 °C; that for `COc1cc2[nH]c(N(C)Cc3cccc(N(CCO)CCO)c3)nc(=O)c2c(OC)c1OC` [Example 190, 2-({3-[Bis(2-hydroxy-ethyl)-amino]-bewnzyl}-methyl-amino)-5,6,7-trimethoxy-1H-quinazolin-4-one], 138.1 to 141 °C. `COCCN1CCN(c2cccc(CN(C)c3nc(=O)c4c(OC)c(OC)c(OC)cc4[nH]3)c2)C1=O` [Example 266, 5,6,7-Trimethoxy-2-({3-[3-(2-methoxy-ethyl)-2-oxo-imidazllidin-1-yl]-benzyl}-methyl-amino)-1H-quinazolin-4-one]: the melting point was in the range of 199.5 to 202.1 °C. With `CCC1CCN(c2cccc(CN(C)c3nc(=O)c4c(C)c(OC)c(OC)cc4[nH]3)c2)C1=O` (centres unmarked) [Example 257, 2-{[3-(3-Ethyl-2-oxo-pyrrolidin-1-yl)-benzyl]-methyl-amino}-6,7-dimethoxy-5-methyl-1H-quinazolin-4-one] the figure was 200.1 to 202.1 °C; with `COCCN(C)c1cccc(CN(C)c2nc(=O)c3c(OC)c(OC)c(OC)cc3[nH]2)c1` [Example G-20, 5,6,7-Trimethoxy-2-({3-[(2-methoxy-ethyl)-methyl-amino]-benzyl}-methyl-amino)-1H-quinazolin-4-one], 179.3 to 181.2 °C; with `COc1cc2[nH]c(N(C)Cc3cccc(/N=C(\C(C)C)N(C)C)c3)nc(=O)c2c(OC)c1OC` [Example 198, N,N-Dimethyl-N′-(3-{[methyl-(5,6,7-trimethoxy-4-oxo-1,4-dihydro-quinazolin-2-yl)-amino]-methyl}-phenyl)-isobutyramidine], 148 to 150 °C.

`COc1cc2[nH]c(N(C)Cc3cc(N(C)C4=NCCC4)ccc3F)nc(=O)c2c(O)c1OC` [Example 211, 2-({-[(4,5-Dihydro-3H-pyrrol-2-yl)-methyl-amino]-2-fluoro-benzyl}-methylamino)-5-hydroxy-6,7-dimethoxy-1H-quinazolin-4-one] yielded a melting point of 264.9 to 267 °C. The molecule `COc1cc2[nH]c(N(C)Cc3ccc(CN(C)S(C)(=O)=O)cc3)nc(=O)c2c(C)c1OC` [Example 10, N-(4-{[(6,7-Dimethoxy-5-methyl-4-oxo-1,4-dihydro-quinazolin-2-yl)-methyl-amino]-methyl}-benzyl)-N-methyl-methanesulfonamide] gave a melting point of 238 to 240 °C.
